This note sets out measurements from patent US4814353A, “Therapeutic and prophylactic agent for gastritis” (Eisai Co., Ltd., priority 1985, dated 1989).

The nature of series [1]: Solubility. The class given is physicochemical.
Series [2] is described as follows: Clinical instances, acute gastritis, peroral teprenone (symptoms, endoscopy, side effects). Format: in vivo, human. The conditions noted are these: 150 mg per day perorally; for subjective symptoms: acute gastritis, 3 days after administration; for endoscopy, lesion of tunica mucosa ventriculi: 5 days after administration. The source says:
(§1) Specific clinical instances will be illustrated to substantiate the effect of the present invention. In the clinical instances, "teprenone" refers to a compound according to the present invention (teprenone is 6,10,14,18-tetramethyl-;b 5,9,13,17-nonadecatetraen-2-one with n=4 in the general formula (I)).
person: actute gastritis
The instance is concerned with a person who visited a hospital while mainly complaining of epigastralgia.
The subjective symptoms included not only severe epigastralgia but also medium nausea, emesis, anorexia, slight pyrosis, abdominal flatulence, abdominal oppression, gastric dysphoria, and eructation.
150 mg per day of teprenone, which is a compound according to the present invention, was perorally administered to the patient.
person: acute gastritis
The conditions of te patient before administration were as follows.
The subjective symptoms included severe epigastralgia, anorexia, medium pyrosis, nausea, emesis, abdominal flatulence, gastric dysphoria, slight abdominal oppression, and eructation.
In endoscopy before administration, lesion of tunica mucosa ventriculi was recognized in the vestibulum (paries anterior venticuli, curvatura ventriculi minor, paries posterior ventriculi) and angularis (paries anterior ventriculi, curvatura ventriculi minor, paries posterior ventriculi).
(§2) 150 mg per day of teprenone, which is the compound according to the present invention, was perorally administered to the patient.

Series [3] can be described thus: Acute toxicity test, rat (SD). As to conditions: in vivo. The source says: (§3) |Acute Toxicity LD50 (mg/μg)
Series [4] is described as follows: Clinical instances, acute animus state/stage of chronic gastritis, peroral teprenone (symptoms, endoscopy, side effects). The class given is in vivo, human. As to conditions: 150 mg per day perorally.
From the text: as §1
person: acute animus state of chronic gastritis
The conditions of the patient before administration were as follows.
The patient complained of subjective symptoms including severe pyrosis, eructation, and slight nausea and emesis. Lesion of mucosa ventriculi was endoscopically recognized in the curvature ventriculi major of the vestibulum.
as §2
(§4) person: acute animus stage of chronic gastritis
The conditions of the patient before administration were as follows. The patient complained of medium epigastralgia, slight abdominal oppression, gastric dysphoria, and anorexia. Lesion of tunica mucosa ventriculi was endoscopically recognized in the curvatura ventriculi minor of the angularis and the curvatura ventriculi minor of the corpus ventriculi.
as §4
The subjective symptoms included epigastralgia, pyrosis, abdominal oppression, gastric dysphoria, and eructation. The levels of them were all medium.
Endoscopically, lesion was recognized in the vestibulum (paries anterior ventriculi, curvatura ventriculi minor, paries posterior ventriculi).

The nature of series [5]: Acute toxicity test, mouse (ICR). As to conditions: in vivo.
From the text: as §3

Series [6] in a line: Acute toxicity test, dog (beagle). The conditions noted are these: in vivo, po, male, peroral.
From the text: as §3

Setting [7] is: Clinical Instance 5, after two weeks.

The structures appear in SMILES notation. Where only a bound is given, the exact number is not on record here.

Regarding `CC(=O)CCC=C(C)CCC=C(C)CCC=C(C)CCC=C(C)C` (mixture of isomers) [3:2 mixture of (5E,9E,13E)-6,10,14,18-tetramethyl-5,9,13,17-nonadecatetraen-2-one and (5Z,9E,13E)-6,10,14,18-tetramethyl-5,9,13,17-nonadecatetraen-2-one], the “solubility in organic solvents” value in series [1] (organic solvents) was “soluble in organic solvents”. Also, the solubility in water result in series [1] (water) is “hardly soluble in water”.
On to `CC(=O)CCC=C(C)CCC=C(C)CCC=C(C)CCC=C(C)C` [teprenone, 6,10,14,18-tetramethyl-5,9,13,17-nonadecatetraen-2-one], for which the subjective symptoms entry in series [2] (Clinical Instance 1, person) was “all the symptons disappeared”; in series [2] (Clinical Instance 3, person), “all the symptoms disappeared”; in series [4] (Clinical Instance 2, person, chronic gastritis, 3 days after administration), “all the symptoms disappeared”; in series [4] (Clinical Instance 4, person, chronic gastritis, 3 days after administration), “substantially all the symptoms disappeared except that slight epigastralgia remained”; in series [4] (Clinical Instance 5, person, chronic gastritis, 3 days after administration) it was “the abdominal oppression, the gastric dysphoria, and the eructation were mitigated, but the epigastralgia and the pyrosis remained unchanged”; in series [4] (Clinical Instance 5, a week after administration) it was “all the symptoms disappeared except for slight eructation”. For the same molecule, the “observation of clinical inspection” value in series [2] (Clinical Instance 1) is given as “no abnormality was recognized”; in series [2] (Clinical Instance 3), “no lesion was recognized”. Further, the values for the side effects entry in series [2] (Clinical Instance 1), in series [2] (Clinical Instance 3) and in series [4] (Clinical Instance 5) were “no side effect altogether”, “no side effects altogether” and “No side effects were regonized”, respectively. Moreover, the “endoscopy, lesion of tunica mucosa ventriculi” value in series [2] (Clinical Instance 1) is “disappearance of the lesion of the tunica mucosa ventriculi was recognized”; in series [2] (Clinical Instance 3), “disappearance of the lesion of tunica mucosa ventriculi was recognized”; in series [4] (Clinical Instance 2, 16 days after administration), “disappearance of the lesion of tunica mucosa ventriculi was recognized”; in series [4] (Clinical Instance 4, 14 days after administration), “disappearance of the lesion of tunica mucosa ventriculi was recognized”; in series [4] (setting [7]) it was “the lesion of tunica mucosa ventriculi disappeared in all parts”. Besides, the 50% lethal dose (LD50) in series [3] (im, female, intramuscular) was greater than 5000 mg/kg; in series [3] (im, male, intramuscular), greater than 5000 mg/kg; in series [3] (ip, female, intraperitoneal) it was 3500 to 5000 mg/kg; in series [3] (ip, male, intraperitoneal) it was greater than 5000 mg/kg; in series [3] (po, female, peroral) it was greater than 15000 mg/kg; in series [3] (po, male, peroral) it was greater than 15000 mg/kg. Besides, the LD50 in series [3] (sc, female, subcutaneous) was greater than 10000 mg/kg; in series [3] (sc, male, subcutaneous) it was greater than 10000 mg/kg; in series [5] (im, female, intramuscular) it was greater than 5000 mg/kg; in series [5] (im, male, intramuscular), greater than 5000 mg/kg; in series [5] (ip, female, intraperitoneal), 3850 mg/kg; in series [5] (ip, male, intraperitoneal) it was 3750 mg/kg. For the same molecule, the LD50 was greater than 15000 mg/kg in series [5] (po, female, peroral); greater than 15000 mg/kg in series [5] (po, male, peroral); greater than 10000 mg/kg in series [5] (sc, female, subcutaneous); greater than 10000 mg/kg in series [5] (sc, male, subcutaneous); greater than 1000 mg/kg in series [6]. Also, the “side effects, including observation of clinical inspection” value in series [4] (Clinical Instance 2) and in series [4] (Clinical Instance 4) was “No side effects were recognized altogether” in each case. Also, in series [4] (Clinical Instance 4, 5 days after administration), the epigastralgia entry was “the epigastralgia also disappeared”. Further, the eructation entry in series [4] (setting [7]) is listed as “The eructation remained”.
